The values below come from ChEMBL document CHEMBL1155960, “Design, synthesis and preliminary biological evaluation of acridine compounds as potential agents for a combined targeted chemo-radionuclide therapy approach to melanoma” (Bioorg Med Chem, 2008).

The conditions of data set [1]: mouse, in vivo, iv, 6 h.
Description: Biodistribution in uvea of C57BL/6 mouse bearing mouse B16-F0 cells at 0.74 to 0.92 MBq, iv after 6 hrs
Data set [2] deals with Spleen. Conditions: mouse, in vivo, iv, 1 h.
Description: Biodistribution in spleen of C57BL/6 mouse bearing mouse B16-F0 cells at 0.74 to 0.92 MBq, iv after 1 hr
In data set [3] the test system is Muscle tissue. Conditions: mouse, in vivo, iv, 6 h.
Description: Biodistribution in muscle of C57BL/6 mouse bearing mouse B16-F0 cells at 0.74 to 0.92 MBq, iv after 6 hrs
Data set [4] deals with Lung. Particulars: mouse, in vivo, iv, 6 h.
Description: Biodistribution in lung of C57BL/6 mouse bearing mouse B16-F0 cells at 0.74 to 0.92 MBq, iv after 6 hrs
The conditions of data set [5]: mouse, in vivo, iv, 72 h.
Description: Biodistribution in uvea of C57BL/6 mouse bearing mouse B16-F0 cells at 0.74 to 0.92 MBq, iv after 72 hrs
A further data set in a line: physchem. Conditions: phosphate buffer solution, pH 7.4.
For data set [6] the following is noted: mouse, in vivo, iv, 6 h. The source holds these as a separate data set.
Description: Biodistribution in intestinal content of C57BL/6 mouse bearing mouse B16-F0 cells at 0.74 to 0.92 MBq, iv after 6 hrs
The subject of data set [7] is Liver. Particulars: mouse, in vivo, iv, 24 h.
Description: Biodistribution in liver of C57BL/6 mouse bearing mouse B16-F0 cells at 0.74 to 0.92 MBq, iv after 24 hrs
In data set [8] the test system is Lung. Particulars: mouse, in vivo, iv, 3 h.
Description: Biodistribution in lung of C57BL/6 mouse bearing mouse B16-F0 cells at 0.74 to 0.92 MBq, iv after 3 hrs
Data set [9] has as its system Kidney. Conditions: mouse, in vivo, iv, 6 h.
Description: Biodistribution in kidney of C57BL/6 mouse bearing mouse B16-F0 cells at 0.74 to 0.92 MBq, iv after 6 hrs
The test system of data set [10] is Blood. Particulars: mouse, in vivo, iv, 1 h.
Description: Biodistribution in blood of C57BL/6 mouse bearing mouse B16-F0 cells at 0.74 to 0.92 MBq, iv after 1 hr
Data set [11] deals with Blood. Particulars: mouse, in vivo, iv, 3 h.
Description: Biodistribution in blood of C57BL/6 mouse bearing mouse B16-F0 cells at 0.74 to 0.92 MBq, iv after 3 hrs
For data set [12] the following is noted: mouse, in vivo, iv, 24 h.
Description: Biodistribution in uvea of C57BL/6 mouse bearing mouse B16-F0 cells at 0.74 to 0.92 MBq, iv after 24 hrs
The conditions of data set [13]: mouse, in vivo, iv, 3 h.
Description: Biodistribution in intestinal content of C57BL/6 mouse bearing mouse B16-F0 cells at 0.74 to 0.92 MBq, iv after 3 hrs
Data set [14] concerns Brain. Particulars: mouse, in vivo, iv, 1 h.
Description: Biodistribution in brain of C57BL/6 mouse bearing mouse B16-F0 cells at 0.74 to 0.92 MBq, iv after 1 hr
The test system of data set [15] is Kidney. Conditions: mouse, in vivo, iv, 1 h.
Description: Biodistribution in kidney of C57BL/6 mouse bearing mouse B16-F0 cells at 0.74 to 0.92 MBq, iv after 1 hr
The test system of data set [16] is Brain. Conditions: mouse, in vivo, iv, 3 h.
Description: Biodistribution in brain of C57BL/6 mouse bearing mouse B16-F0 cells at 0.74 to 0.92 MBq, iv after 3 hrs
For data set [17] the following is noted: mouse, in vivo, iv, 1 h.
Description: Biodistribution in intestinal content of C57BL/6 mouse bearing mouse B16-F0 cells at 0.74 to 0.92 MBq, iv after 1 hr
The conditions of data set [18]: mouse, in vivo, iv, 3 h. The source holds these as a separate data set.
Description: Biodistribution in uvea of C57BL/6 mouse bearing mouse B16-F0 cells at 0.74 to 0.92 MBq, iv after 3 hrs
The conditions of data set [19]: mouse, in vivo, iv, 72 h. The source holds these as a separate data set.
Description: Biodistribution in melanoma of C57BL/6 mouse bearing mouse B16-F0 cells at 0.74 to 0.92 MBq, iv after 72 hrs
Data set [20] relates to Muscle tissue. Particulars: mouse, in vivo, iv, 3 h.
Description: Biodistribution in muscle of C57BL/6 mouse bearing mouse B16-F0 cells at 0.74 to 0.92 MBq, iv after 3 hrs
The test system of data set [21] is Lung. Particulars: mouse, in vivo, iv, 1 h.
Description: Biodistribution in lung of C57BL/6 mouse bearing mouse B16-F0 cells at 0.74 to 0.92 MBq, iv after 1 hr
The subject of data set [22] is Muscle tissue. Conditions: mouse, in vivo, iv, 1 h.
Description: Biodistribution in muscle of C57BL/6 mouse bearing mouse B16-F0 cells at 0.74 to 0.92 MBq, iv after 1 hr
Data set [23] has as its system Kidney. Conditions: mouse, in vivo, iv, 3 h.
Description: Biodistribution in kidney of C57BL/6 mouse bearing mouse B16-F0 cells at 0.74 to 0.92 MBq, iv after 3 hrs
The conditions of data set [24]: mouse, in vivo, iv, 1 h. This is another data set of the same source.
Description: Biodistribution in uvea of C57BL/6 mouse bearing mouse B16-F0 cells at 0.74 to 0.92 MBq, iv after 1 hr
The subject of data set [25] is Liver. Conditions: mouse, in vivo, iv, 3 h.
Description: Biodistribution in liver of C57BL/6 mouse bearing mouse B16-F0 cells at 0.74 to 0.92 MBq, iv after 3 hrs
For data set [26], the system named is Spleen. Conditions: mouse, in vivo, iv, 3 h.
Description: Biodistribution in spleen of C57BL/6 mouse bearing mouse B16-F0 cells at 0.74 to 0.92 MBq, iv after 3 hrs
The conditions of data set [27]: mouse, in vivo, iv, 72 h. This is another data set of the same source.
Description: Drug excretion in mouse B16-F0 cells bearing C57BL/6 mouse feces at 0.74 to 0.92 MBq, iv after 72 hrs
For data set [28] the following is noted: mouse, in vivo, iv, 72 h. The source holds these as a separate data set.
Description: Drug excretion in mouse B16-F0 cells bearing C57BL/6 mouse urine at 0.74 to 0.92 MBq, iv after 72 hrs
The conditions of data set [29]: mouse, in vivo, iv, 1 h. The source holds these as a separate data set.
Description: Biodistribution in stomach content of C57BL/6 mouse bearing mouse B16-F0 cells at 0.74 to 0.92 MBq, iv after 1 hr
The conditions of data set [30]: mouse, in vivo, iv, 6 h. This is another data set of the same source.
Description: Biodistribution in stomach content of C57BL/6 mouse bearing mouse B16-F0 cells at 0.74 to 0.92 MBq, iv after 6 hrs
For data set [31] the following is noted: mouse, in vivo, iv, 3 h. The source holds these as a separate data set.
Description: Biodistribution in stomach content of C57BL/6 mouse bearing mouse B16-F0 cells at 0.74 to 0.92 MBq, iv after 3 hrs
Data set [32] has as its system Liver. Conditions: mouse, in vivo, iv, 1 h.
Description: Biodistribution in liver of C57BL/6 mouse bearing mouse B16-F0 cells at 0.74 to 0.92 MBq, iv after 1 hr
The test system of data set [33] is Liver. Conditions: mouse, in vivo, iv, 6 h.
Description: Biodistribution in liver of C57BL/6 mouse bearing mouse B16-F0 cells at 0.74 to 0.92 MBq, iv after 6 hrs

Description for physchem: Partition coefficient, log P in phosphate buffer solution at pH 7.4

As usually defined, the logD is lipophilicity at a set pH, counting ionised and neutral species. Low readings indicate lower lipophilicity, high ones higher lipophilicity. In the case of `CCN(CC)CCNC(=O)c1cccc2c(=O)c3cc(I)ccc3[nH]c12.Cl`, the Drug uptake in data set [1] is 19.5 % ID/g; with Spleen [2], 13.9 % ID/g; in the data set with Muscle tissue [3] it was 0.9 % ID/g; in the data set with Lung [4] it was 10 % ID/g; in data set [5], 26.4 % ID/g; in data set [6] it was 32.9 % ID/g. For the same molecule, the Drug uptake with Liver [7] was found to be 1.2 % ID/g; in the data set with Lung [8], 14 % ID/g; with Kidney [9], 8.9 % ID/g; in the data set on Blood [10] it was 2.08 % ID/g; in the data set on Blood [11], 1.4 % ID/g; in data set [12] it was 27.5 % ID/g. The Drug uptake stood at 27.81 % ID/g in data set [13]; 1.6 % ID/g with Brain [14]; 17.6 % ID/g in the data set on Kidney [15]; 1.2 % ID/g in the data set with Brain [16]; 22.7 % ID/g in [17]; 16.9 % ID/g in [18]. The Drug uptake in data set [19] is 17.5 % ID/g; in the data set with Muscle tissue [20] it was 1.4 % ID/g; in the data set on Lung [21], 23.9 % ID/g; in the data set on Muscle tissue [22] it was 1.9 % ID/g; with Kidney [23], 13 % ID/g; in [24], 15.2 % ID/g. Also, the Drug uptake is 9.3 % ID/g in the data set on Liver [25] and 9.9 % ID/g in the data set on Spleen [26]. Further, the logD in the data set “physchem” is 0.27.

Turning to `CCN(CC)CCNC(=O)c1cccc2c(=O)c3cc([125I])ccc3[nH]c12.Cl`, the Drug uptake in [27] stood at 38.4 %ID; in data set [28], 10.4 %ID.

With `CCN(CC)CCNC(=O)c1ccc(I)cc1.Cl`, the Drug uptake in data set [1] was determined as 13 % ID/g; in data set [29], 10.1 % ID/g; with Spleen [2], 4 % ID/g; in the data set with Muscle tissue [3] it was 0.1 % ID/g; in data set [30] it was 4.5 % ID/g; with Lung [4], 1 % ID/g. For the same molecule, the Drug uptake in [5] is listed as 3.8 % ID/g; in data set [6] it was 3.3 % ID/g; in the data set on Liver [7] it was 0.4 % ID/g; with Lung [8], 2 % ID/g; in the data set with Kidney [9], 1.6 % ID/g; with Blood [10] it was 1.1 % ID/g. The Drug uptake is reported as 4.3 % ID/g in data set [31]; 4.8 %ID in data set [27]; 0.2 % ID/g in the data set on Blood [11]; 6.1 % ID/g in [12]; 3.7 % ID/g in data set [13]; 1.5 % ID/g with Brain [14]. For the same molecule, the Drug uptake with Kidney [15] worked out at 7.3 % ID/g; with Brain [16] it was 0.8 % ID/g; in data set [17] it was 7.4 % ID/g; in data set [28], 83.1 %ID; in data set [18], 12 % ID/g; in the data set on Liver [32] it was 5.9 % ID/g. For the same molecule, the Drug uptake in data set [19] came to 0.88 % ID/g; in the data set with Liver [33], 2.6 % ID/g; in the data set on Muscle tissue [20], 0.4 % ID/g; in the data set with Lung [21], 5.5 % ID/g; in the data set with Muscle tissue [22], 1.3 % ID/g; with Kidney [23], 3.1 % ID/g. Also, the Drug uptake in data set [24] is reported as 13.1 % ID/g; in the data set with Liver [25], 3.3 % ID/g; in the data set with Spleen [26], 0.8 % ID/g. Moreover, the logD in the data set “physchem” is 1.34.
